Data as given in patent US20220411381A1, “PYRIMIDINEDIONE DERIVATIVES” (Bayer Aktiengesellschaft, priority 2019, published 2022).
Like-named read-outs stand apart in the source and are kept apart here.

What was measured:
[1] = molecular target: T1, recombinant human BCAT2 enzyme (Homo sapiens, UniProt O15382); experiment: In vitro assay 1b: BCAT2 biochemical assay (coupled LeuDH/NADH fluorescence readout); details: recombinant human BCAT2 […], 32° C., 100 μM leucine, 50 μM α-ketoglutarate, NADH fluorescence over 90 min; read-out: BCAT2 IC50; also: recombinant human BCAT2 0.75 nM
T1 construct: purchased ATGen (South Korea) ATGP1523
T1 sequence (O15382 28-392): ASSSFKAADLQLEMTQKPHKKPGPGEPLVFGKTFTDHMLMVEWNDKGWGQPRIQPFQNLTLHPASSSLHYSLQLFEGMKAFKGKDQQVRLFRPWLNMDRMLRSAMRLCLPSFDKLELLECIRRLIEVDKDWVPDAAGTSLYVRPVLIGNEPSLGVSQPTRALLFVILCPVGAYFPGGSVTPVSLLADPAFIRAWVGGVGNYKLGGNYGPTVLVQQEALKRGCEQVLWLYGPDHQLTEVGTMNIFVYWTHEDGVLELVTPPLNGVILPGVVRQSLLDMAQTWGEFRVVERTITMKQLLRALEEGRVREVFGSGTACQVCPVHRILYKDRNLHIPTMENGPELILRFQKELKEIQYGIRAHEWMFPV
Description: (§1) In Vitro Assay 1a and 1b: BCAT1 and BCAT2 Biochemical Assay
(§2) BOAT (Branched chain amino acid transferase) catalyzes transamination of the branched chain amino acid leucine to α-ketoisocaproate (KIC). The BOAT enzymatic reaction was measured in a coupled readout with leucine dehydrogenase (LeuDH) which catalyzes the Nicotinamide adenine dinucleotide (NADH) dependent reduction of KIC to leucine. NADH consumption is measured by fluorescent readout.
(§3) The biochemical reactions were performed at 32° C. in 384-well plates using a reaction volume of 51 μl and the following assay buffer conditions: 50 mM HEPES (2-[4-(2-hydroxyethyl)piperazin-1-yl]ethanesulfonic acid) pH 8.0, 50 mM aqueous solution of ammonium sulfate, 1 mM ethylenediaminetetraacetic acid, 2 mM dithiothreitol, 0.01% bovine serum albumine, 0.005% Brij 35 detergent, 0.5 μM PLP (pyridoxalphosphate), 10 μM NADH, and 50 μM α-ketoglutarate), and 100 μM leucine. […] Test compounds were used in a concentration range between 0.005 and 30 μM. The final DMSO concentration was 2%.
(§4) The reaction was initiated by addition of substrates (Leucine, α-KG, NADH).

[2] = molecular target: T2, recombinant human BCAT1 enzyme (Homo sapiens, UniProt P54687); experiment: In vitro assay 1a: BCAT1 biochemical assay (coupled LeuDH/NADH fluorescence readout); details: read-out: BCAT1 IC50
T2 construct: purchased ATGen (South Korea) ATGP1479
T2 sequence (P54687 1-386): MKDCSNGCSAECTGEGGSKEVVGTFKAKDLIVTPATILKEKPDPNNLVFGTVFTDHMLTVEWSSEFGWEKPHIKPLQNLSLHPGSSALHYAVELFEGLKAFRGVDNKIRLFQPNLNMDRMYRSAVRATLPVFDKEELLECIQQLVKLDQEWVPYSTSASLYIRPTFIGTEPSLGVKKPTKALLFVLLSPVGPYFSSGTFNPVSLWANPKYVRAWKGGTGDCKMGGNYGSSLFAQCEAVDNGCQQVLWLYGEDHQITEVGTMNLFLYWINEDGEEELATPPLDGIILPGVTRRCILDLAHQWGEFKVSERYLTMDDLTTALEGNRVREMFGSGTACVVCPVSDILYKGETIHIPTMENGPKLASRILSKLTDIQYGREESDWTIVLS
Description: as §1, §2, §3, §4

[3] = recombinant human BCAT1 […], 32° C., 100 μM leucine, 50 μM α-ketoglutarate, NADH fluorescence over 90 min

| IC50 [1] | IC50 [2, 3] | Compound | IC50 [2] |
| --- | --- | --- | --- |
| 15500 nM | 1800 nM | Cc1ccccc1Oc1cc(-n2c(=O)cc(C(F)(F)F)[nH]c2=O)c(O)cc1C#N (racemic) [Example 54, 4-[2,6-Dioxo-4-(trifluoromethyl)-3,6-dihydropyrimidin-1(2H)-yl]-5-hydroxy-2-(2-methylphenoxy)benzonitrile (rac)] | – |
| 16000 nM | 2700 nM | Cc1ccccc1Oc1cc(-n2c(=O)cc(S(C)(=O)=O)[nH]c2=O)c(F)cc1C#N [Example 75, 5-Fluoro-4-[4-(methanesulfonyl)-2,6-dioxo-3,6-dihydropyrimidin-1(2H)-yl]-2-(2-methylphenoxy)benzonitrile] | – |
| 600 nM | 145 nM | COc1cc(C#N)c(Oc2ccccc2C)cc1-n1c(=O)cc(C(F)(F)c2ccccc2)[nH]c1=O (racemic) [Example 24, 4-{4-[Difluoro(phenyl)methyl]-2,6-dioxo-3,6-dihydropyrimidin-1(2H)-yl}-5-methoxy-2-(2-methylphenoxy)benzonitrile (rac)] | – |
| – | 5100 nM | Cc1cccc(Oc2cc(-n3c(=O)cc(C(F)(F)F)[nH]c3=O)c(F)cc2C#N)c1C [Example 67, 2-(2,3-Dimethylphenoxy)-4-[2,6-dioxo-4-(trifluoromethyl)-3,6-dihydropyrimidin-1(2H)-yl]-5-fluorobenzonitrile] | – |
| – | 19000 nM | COc1cc(C#N)c(Oc2ccccc2Cl)cc1-n1c(=O)cc(C(F)(F)F)[nH]c1=O (single isomer, unassigned) [Example 17, 2-(2-Chlorophenoxy)-4-[2,6-dioxo-4-(trifluoromethyl)-3,6-dihydropyrimidin-1(2H)-yl]-5-methoxybenzonitrile (atrop 2)] | – |
| 5000 nM | 1500 nM | Cc1cccc(C)c1Oc1cc(-n2c(=O)cc(C(F)(F)c3ccccc3)[nH]c2=O)c(F)cc1C#N [Example 57, 4-{4-[Difluoro(phenyl)methyl]-2,6-dioxo-3,6-dihydropyrimidin-1(2H)-yl}-2-(2,6-dimethylphenoxy)-5-fluorobenzonitrile] | – |
| 2500 nM | 300 nM | COc1cc(C#N)c(Oc2ccccc2C)cc1-n1c(=O)cc(S(C)(=O)=O)[nH]c1=O (single isomer, unassigned) [Example 80, 4-[4-(Methanesulfonyl)-2,6-dioxo-3,6-dihydropyrimidin-1(2H)-yl]-5-methoxy-2-(2-methylphenoxy)benzonitrile (atrop 1)] | – |
| 2600 nM | 200 nM | Cc1ccccc1Oc1cc(-n2c(=O)cc(C(F)(F)F)[nH]c2=O)c(Br)cc1C#N (racemic) [Example 18, 5-Bromo-4-[2,6-dioxo-4-(trifluoromethyl)-3,6-dihydropyrimidin-1(2H)-yl]-2-(2-methylphenoxy)benzonitrile (rac)] | – |
| 2170 nM | 270 nM | Cc1ccccc1Oc1cc(-n2c(=O)cc(C(F)(F)Cl)[nH]c2=O)c(Cl)cc1C#N (racemic) [Example 26, 5-Chloro-4-{4-[chloro(difluoro)methyl]-2,6-dioxo-3,6-dihydropyrimidin-1(2H)-yl}-2-(2-methylphenoxy)benzonitrile (rac)] | – |
| – | 7500 nM | Cc1ccc(C)c(Oc2cc(-n3c(=O)cc(C(F)(F)F)[nH]c3=O)c(F)cc2C#N)c1C [Example 60, 4-[2,6-Dioxo-4-(trifluoromethyl)-3,6-dihydropyrimidin-1(2H)-yl]-5-fluoro-2-(2,3,6-trimethylphenoxy)benzonitrile] | – |
| – | 5500 nM | COc1cc(C#N)c(Oc2ccccc2C)cc1-n1c(=O)cc(-c2ccccc2)[nH]c1=O (single isomer, unassigned) [Example 43, 4-(2,6-Dioxo-4-phenyl-3,6-dihydropyrimidin-1(2H)-yl)-5-methoxy-2-(2-methylphenoxy)benzonitrile (atrop 1)] | – |
| – | 2500 nM | Cc1cc(Cl)cc(C)c1Oc1cc(-n2c(=O)cc(C(F)(F)F)[nH]c2=O)c(F)cc1C#N [Example 61, 2-(4-Chloro-2,6-dimethylphenoxy)-4-[2,6-dioxo-4-(trifluoromethyl)-3,6-dihydropyrimidin-1(2H)-yl]-5-fluorobenzonitrile] | – |
| 1300 nM | 200 nM | COc1cc(C#N)c(Oc2ccccc2C)cc1-n1c(=O)cc(C(F)(F)Cl)[nH]c1=O (racemic) [Example 25, 4-{4-[Chloro(difluoro)methyl]-2,6-dioxo-3,6-dihydropyrimidin-1(2H)-yl}-5-methoxy-2-(2-methylphenoxy)benzonitrile (rac)] | – |
| – | – | 4-[4-(Methanesulfonyl)-2,6-dioxo-3,6-dihydropyrimidin-1(2H)-yl]-5-methoxy-2-(2-methylphenoxy)benzonitrile (atrop 2) [Example 81] | 2500 nM |
| 2600 nM | 297 nM | N#Cc1cc(F)c(-n2c(=O)cc(C(F)(F)F)[nH]c2=O)cc1Oc1c(N)cccc1F [Example 64, 2-(2-Amino-6-fluorophenoxy)-4-[2,6-dioxo-4-(trifluoromethyl)-3,6-dihydropyrimidin-1(2H)-yl]-5-fluorobenzonitrile] | – |
| 1600 nM | 750 nM | Cc1ccccc1Oc1cc(-n2c(=O)cc(C(F)(F)c3ccccc3)[nH]c2=O)c(Cl)cc1C#N (racemic) [Example 53, 5-Chloro-4-{4-[difluoro(phenyl)methyl]-2,6-dioxo-3,6-dihydropyrimidin-1(2H)-yl}-2-(2-methylphenoxy)benzonitrile (rac)] | – |
| – | 2500 nM | Cc1cc(C)c(Oc2cc(-n3c(=O)cc(C(F)(F)F)[nH]c3=O)c(F)cc2C#N)c(C)c1 [Example 62, 4-[2,6-Dioxo-4-(trifluoromethyl)-3,6-dihydropyrimidin-1 (2H)-yl]-5-fluoro-2-(2,4,6-trimethylphenoxy)benzonitrile] | – |
| 2000 nM | – | Cc1ccccc1Oc1cc(-n2c(=O)cc(C(F)(F)F)[nH]c2=O)c(Cl)cc1C#N (racemic) [Example 11, 5-Chloro-4-[2,6-dioxo-4-(trifluoromethyl)-3,6-dihydropyrimidin-1(2H)-yl]-2-(2-methylphenoxy)benzonitrile (rac)] | – |
| – | 150 nM | COc1cc(C#N)c(Oc2ccccc2C)cc1-n1c(=O)cc(C(F)F)[nH]c1=O (racemic) [Example 22, 4-[4-(Difluoromethyl)-2,6-dioxo-3,6-dihydropyrimidin-1(2H)-yl]-5-methoxy-2-(2-methylphenoxy)benzonitrile (rac)] | – |
| 6500 nM | 550 nM | COc1cc(C#N)c(Oc2ccccc2C)cc1-n1c(=O)cc(-c2ccccc2)[nH]c1=O (single isomer, unassigned) [Example 44, 4-(2,6-Dioxo-4-phenyl-3,6-dihydropyrimidin-1(2H)-yl)-5-methoxy-2-(2-methylphenoxy)benzonitrile (atrop 2)] | – |
| 49000 nM | 6700 nM | Cc1ccc(Oc2cc(-n3c(=O)cc(C(F)(F)F)[nH]c3=O)c(F)cc2C#N)c(C)c1 [Example 66, 2-(2,4-Dimethylphenoxy)-4-[2,6-dioxo-4-(trifluoromethyl)-3,6-dihydropyrimidin-1(2H)-yl]-5-fluorobenzonitrile] | – |
| 4330 nM | – | COc1cc(C#N)c(Oc2ccccc2C)cc1-n1c(=O)cc(C(F)(F)C(F)(F)F)[nH]c1=O (racemic) [Example 51, 4-[2,6-Dioxo-4-(pentafluoroethyl)-3,6-dihydropyrimidin-1(2H)-yl]-5-methoxy-2-(2-methylphenoxy)benzonitrile (rac)] | – |
| 2000 nM | – | Cc1ccccc1Oc1cc(-n2c(=O)cc(C(F)(F)F)[nH]c2=O)c(Cl)cc1C#N (single isomer, unassigned) [Example 13, 5-Chloro-4-[2,6-dioxo-4-(trifluoromethyl)-3,6-dihydropyrimidin-1(2H)-yl]-2-(2-methylphenoxy)benzonitrile (atrop 2)] | – |
| – | 1800 nM | CC(=O)c1cc(C)cc(C)c1Oc1cc(-n2c(=O)cc(C(F)(F)F)[nH]c2=O)c(F)cc1C#N [Example 58, 2-(2-Acetyl-4,6-dimethylphenoxy)-4-[2,6-dioxo-4-(trifluoromethyl)-3,6-dihydropyrimidin-1(2H)-yl]-5-fluorobenzonitrile] | – |
